From patent US7320967B2, “Cosmetic composition, method of cosmetic treatment and preparation of a composition for promoting the growth and/or preventing or delaying the loss of hair” (L'Oreal, priority 2002, dated 2008)
Read-outs that look alike come from different tables or passages of the source.

How the values were obtained:
PGFS = target: T1, PGFS (Homo sapiens, UniProt P42330, H5Q); experiment: PGFS test (maximum reaction rate, optical density at 340 nm); assay type: biochemical; conditions: for IC50: protocol of Example 3
T1 construct: GST (glutathione S-transferase, pGEX 2T) (N, cleaved yes); made in house; host or cells: E. coli BL21DE3
T1 sequence (P42330 1-323 H5Q): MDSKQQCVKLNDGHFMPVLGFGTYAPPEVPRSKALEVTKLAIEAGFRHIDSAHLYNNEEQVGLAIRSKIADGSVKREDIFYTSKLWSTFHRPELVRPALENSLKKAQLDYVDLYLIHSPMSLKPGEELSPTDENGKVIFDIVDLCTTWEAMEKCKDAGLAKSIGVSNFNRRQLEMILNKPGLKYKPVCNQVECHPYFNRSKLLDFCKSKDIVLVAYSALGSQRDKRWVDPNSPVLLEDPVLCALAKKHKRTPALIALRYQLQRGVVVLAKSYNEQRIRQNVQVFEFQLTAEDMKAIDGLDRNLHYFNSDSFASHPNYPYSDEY
Description: The compounds noted as 15-PGDH inhibitors are then tested for their capacity to inhibit PGF synthase. For that, the following are for example brought into contact: the enzyme PGFS at a final concentration of 25×10^−3 mg/l, its cosubstrate (β-NADPH2) and a substrate (for example phenanthrenequinone) at the concentrations conventionally used for this test as described for example by Suzuki et al. (cDNA cloning, expression and mutagenesis study of liver-type prostaglandin F synthase. J Biol Chem, 1999, 274(1): 241-248), that is to say 100 μM β-NADPH2 and 20 μM phenanthrenequinone. The maximum reaction rate is measured per unit of time at 37° C. The same reaction is carried out but adding the test compound to the medium at the start of the reaction. The maximum enzyme reaction rate with the compound is compared to that of the control with no compound, and the percentage inhibition [100−(Vmax assay×100)/Vmax control] is determined.
The enzyme obtained is at a concentration of 0.5 mg/ml and blocked at −80° C. This suspension is thawed and stored on ice.
Preparation in a brown flask (protection from light) of a 100 mM Tris buffer pH=6.5 containing 20 μM 9,10-phenanthrenequinone* (P2896, Sigma-Aldrich, L'isle D'Abeau Chesne, BP 701, 38297, Saint Quentin Fallavier) and 100 μM β-NADPH (N1630, Sigma-Aldrich, L'isle D'Abeau Chesne, BP 701, 38297, Saint Quentin Fallavier). A stock solution having a titre of 1 mM is prepared in absolute ethanol heated to 40° C., the flask is placed in an ultrasonic tank in order to facilitate the solubilization of the product.
0.950 ml of this buffer (previously heated to 37° C.) is introduced into the cuvette of a spectrophotometer (Perkin-Elmer, Lambda 2) thermostated at 37° C. whose wavelength for measurement is set at 340 nm. 0.05 ml of enzymatic suspension at 37° C. is introduced into the cuvette concomitantly with the recording (reduction in the optical density at 340 nm).
(§1) The maximum reaction rate is recorded.
(§2) The test values (molecules) are compared with the control value (with no molecule), the results are expressed as % of the control value.

[1] = tested on: PGF2α secreted by U937 cells; experiment: Cellular model: PGF2α secreted by PMA-differentiated, LPS-stimulated U937 cells; assay type: cell-based; conditions: 5 μM; U937 + 10 nM PMA, then LPS, 6 h
Description: This makes it possible to evaluate the efficacy of a selective 15-PGDH inhibitor on the protection of prostaglandins in a complex biological system producing the different types of enzyme involved in the metabolism of these molecules. For example, a culture of promonocytes is used, these being precursors of macrophages under certain conditions, a model which is very widespread for studying the metabolism of prostaglandins.
Indeed, the phorbol esters (10 nM PMA) cause within 24 h 00 min the differentiation of the promonocyte line U937 into macrophages; this differentiation is accompanied by the induction of 15-PGDH. (Tong and Tai, Biochim Biophys Acta, 2000; 1497: 61-68).
Moreover, stimulation of these macrophages by LPS (lipopolysaccharide extracted from the bacterial wall) induces (at 100 ng/ml) in 6 h 00 min PGHS-2 (or COX-2), an enzyme responsible (in the same way as COX-1) for the synthesis of PGH2, a precursor (inter alia) via PGFS, of PGF2α (Arias-Negrete et al., 1995. Biochem Biophys Res Commun, 208(2), 582-589).
In a 1st stage, macrophage precursors are cultured in a suitable medium, in the presence of a compound stimulating their differentiation and the induction of 15-PGDH, and then the production of prostaglandins by these cells is stimulated, for example by LPSs in the form of an extract or by purified LPSs; this 2nd stage is performed in the presence or otherwise of the compound to be tested. The concentrations of prostaglandins, in particular of PGF2α, obtained in the presence of the 15-PGDH inhibiting compound to be tested are compared to that of the control containing only the 15-PGDH inducer, it being possible to carry out this measurement by any method known to a person skilled in the art, in particular by immunoenzymatic assay. […]
All the wells will contain the same final quantity of DMSO.
Immediate evaluation of the quantity of PGF2α secreted by the cells (50 μl) under different conditions (molecules or controls) using an immunoenzymatic assay kit (Cayman ref. 516011). […]

15-PGDH = target: T2, 15-PGDH (Homo sapiens, UniProt P15428); experiment: 15-PGDH test (maximum reaction rate, optical density at 340 nm); assay type: biochemical
T2 construct: GST (glutathione S-transferase, pGEX 4T3) (N, cleaved yes); made in house; host or cells: E. coli BL21DE3plys
T2 sequence (P15428 1-266): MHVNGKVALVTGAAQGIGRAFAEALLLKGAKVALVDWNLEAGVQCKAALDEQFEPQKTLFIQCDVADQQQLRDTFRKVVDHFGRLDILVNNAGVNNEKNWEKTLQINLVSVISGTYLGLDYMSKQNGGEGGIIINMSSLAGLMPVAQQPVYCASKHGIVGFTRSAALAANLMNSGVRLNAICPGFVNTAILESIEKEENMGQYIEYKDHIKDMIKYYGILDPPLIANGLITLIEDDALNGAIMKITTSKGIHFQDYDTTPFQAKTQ
Description: For that, the following are for example brought into contact: the enzyme 15-PGDH at a final concentration of 7×10^−3 mg/ml, its cosubstrate (β-NAD) and a substrate (PGE2) at the concentrations corresponding to the conditions conventionally used for this test as described for example by Cho and Tai (Inhibition of NAD-dependent 15-hydroxyprostaglandin dehydrogenase (15-PGDH) by cyclooxygenase inhibitors and chemopreventive agents. Prostaglandins, Leukotrienes and Essential Fatty Acids, 2002, 67(6): 461-465), for example 1.5 mM β-NAD and 50 μM prostaglandin E2. The rate of the reaction is measured at 37° C. for 1 minute. The same reaction is carried out, but adding the test compound to the medium at the start of the reaction. The maximum enzyme reaction rate per unit of time (Vmax) measured in the presence of the compound is compared to that of the control with no compound, and the percentage inhibition [100−(Vmax assay×100)/Vmax control] is determined.
The enzyme obtained is at the concentration of 0.3 mg/ml and is blocked at −80° C. This suspension is thawed and stored on ice.
Preparation of a 100 mM Tris buffer pH=7.4 containing 0.1 mM dithiothreitol (D5545, Sigma-Aldrich, L'isle D'Abeau Chesne, BP 701, 38297, Saint Quentin Fallavier), 1.5 mM β-NAD (N6522, Sigma-Aldrich, L'isle D'Abeau Chesne, BP 701, 38297, Saint Quentin Fallavier), 50 μM Prostaglandin E2 (P4172, Sigma-Aldrich, L'isle D'Abeau Chesne, BP 701, 38297, Saint Quentin Fallavier).
0.965 ml of this buffer (previously heated to 37° C.) is introduced into a spectrophotometer cuvette (Perkin-Elmer, Lambda 2) thermostated at 37° C., whose wavelength for measurement is set at 340 nm. 0.035 ml of enzymatic suspension at 37° C. are introduced into the cuvette concomitantly with the recording (increase in the optical density at 340 nm).
as §1, §2

[2] = protocol of Example 3, read-out: Inhibition of 15-PGDH at 50 μM

Compound | IC50 (PGFS) [µM] | PGF2α secreted, % of the control (LPS control) [1] | inhibition at 50 µM (15-PGDH; [2]) [%] | IC50 (15-PGDH; protocol of Example 3) [µM] | inhibition at 50 µM (PGFS) [%] | inhibition at 50 µM (15-PGDH; read-out: % Inhibition 15-PGDH) [%]
O=C(Cc1nnn(-c2ccccc2)n1)c1ccccc1 [Compound 1, 1-phenyl-2-(2-phenyl-2H-tetrazol-5-yl)ethanone] | > 75 | +16% | 70 |  |  | 
COc1ccccc1NC(=O)Cn1nnc(-c2ccccc2)n1 [Compound 4, N-(2-methoxyphenyl)-2-(5-phenyl-2H-tetrazol-2-yl)acetamide] | > 75 | +6% | 60 | 55 |  | 
Cc1ccc(NC(=O)Cn2nnc(-c3cccc(C(F)(F)F)c3)n2)cc1 [Compound R29A, N-(4-methylphenyl)-2-{5-[3-(trifluoromethyl)phenyl]-2H-tetrazol-2-yl}acetamide] | > 75 | +46% |  | 30 |  | 
Nc1c(Cl)nc(-c2ccccc2)nc1Cl [Molecule A, 5-amino-4,6-dichloro-2-phenylpyrimidine] |  |  |  |  | 5 | 43
O=C(Nc1ncc2c(n1)CC(c1ccccc1Cl)CC2=O)c1ccccc1 (centres unmarked) [Molecule B, N-[7-(2-Chlorophenyl)-5-oxo-5,6,7,8-tetrahydroquinazolin-2-yl]benzamide] |  |  |  |  | 10 | 57
